Results reported in patent US20150352108A1, “AMINO-PYRIMIDINE COMPOUNDS AS INHIBITORS OF TBK1 AND/OR IKK EPSILON” (Alzheimer's Institute of America, priority 2009, published 2015).
pIC50: −log10 of the molar value. Where two headings read alike, the source gives them in different places.

Legend:
[1] = target: T1, IKKε (Homo sapiens, UniProt Q14164); assay: In-vitro IKKε kinase assay ([γ33]ATP filter-plate); format: biochemical
T1 construct: His-tag; made in house; host or cells: Sf9 insect cells
T1 sequence (Q14164 1-716): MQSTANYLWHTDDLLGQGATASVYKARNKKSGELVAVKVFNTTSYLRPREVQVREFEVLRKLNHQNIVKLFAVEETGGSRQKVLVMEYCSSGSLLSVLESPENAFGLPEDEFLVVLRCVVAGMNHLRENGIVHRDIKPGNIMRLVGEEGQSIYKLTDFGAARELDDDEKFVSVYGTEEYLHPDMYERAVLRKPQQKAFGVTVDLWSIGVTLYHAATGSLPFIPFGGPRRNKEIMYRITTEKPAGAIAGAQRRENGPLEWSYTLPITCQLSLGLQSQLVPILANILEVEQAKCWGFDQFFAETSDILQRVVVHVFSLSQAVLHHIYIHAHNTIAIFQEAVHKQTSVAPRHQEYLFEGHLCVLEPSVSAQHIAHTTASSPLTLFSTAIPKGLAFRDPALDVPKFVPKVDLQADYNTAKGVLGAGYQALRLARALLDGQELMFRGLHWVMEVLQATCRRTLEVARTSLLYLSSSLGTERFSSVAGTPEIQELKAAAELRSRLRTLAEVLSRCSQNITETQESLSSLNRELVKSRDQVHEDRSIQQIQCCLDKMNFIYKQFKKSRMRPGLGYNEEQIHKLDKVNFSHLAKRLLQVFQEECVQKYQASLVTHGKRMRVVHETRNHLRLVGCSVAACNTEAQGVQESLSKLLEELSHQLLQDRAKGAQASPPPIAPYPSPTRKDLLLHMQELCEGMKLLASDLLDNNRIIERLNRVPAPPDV
In short: (§1)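 Phosphorylation of casein or myelin basic protein was counted by P-81 filter capture after 30-45 min reactions stopped with phosphoric acid, with counts normalized to DMSO after background subtraction. ATP was twice Km: 60 μM for TBK1 and 32 μM for IKKε, plus [γ33]ATP. Sf9-expressed His-tag enzymes were used at normal/sensitized levels of 0.1/0.02 μg/ml (TBK1) and 0.1/0.015 μg/ml (IKKε).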

[2] = target: T2, TBK1 (Homo sapiens, UniProt Q9UHD2); assay: In-vitro TBK1 kinase assay ([γ33]ATP filter-plate); format: biochemical
T2 construct: His-tag; made in house; host or cells: Sf9 insect cells
T2 sequence (Q9UHD2 1-729): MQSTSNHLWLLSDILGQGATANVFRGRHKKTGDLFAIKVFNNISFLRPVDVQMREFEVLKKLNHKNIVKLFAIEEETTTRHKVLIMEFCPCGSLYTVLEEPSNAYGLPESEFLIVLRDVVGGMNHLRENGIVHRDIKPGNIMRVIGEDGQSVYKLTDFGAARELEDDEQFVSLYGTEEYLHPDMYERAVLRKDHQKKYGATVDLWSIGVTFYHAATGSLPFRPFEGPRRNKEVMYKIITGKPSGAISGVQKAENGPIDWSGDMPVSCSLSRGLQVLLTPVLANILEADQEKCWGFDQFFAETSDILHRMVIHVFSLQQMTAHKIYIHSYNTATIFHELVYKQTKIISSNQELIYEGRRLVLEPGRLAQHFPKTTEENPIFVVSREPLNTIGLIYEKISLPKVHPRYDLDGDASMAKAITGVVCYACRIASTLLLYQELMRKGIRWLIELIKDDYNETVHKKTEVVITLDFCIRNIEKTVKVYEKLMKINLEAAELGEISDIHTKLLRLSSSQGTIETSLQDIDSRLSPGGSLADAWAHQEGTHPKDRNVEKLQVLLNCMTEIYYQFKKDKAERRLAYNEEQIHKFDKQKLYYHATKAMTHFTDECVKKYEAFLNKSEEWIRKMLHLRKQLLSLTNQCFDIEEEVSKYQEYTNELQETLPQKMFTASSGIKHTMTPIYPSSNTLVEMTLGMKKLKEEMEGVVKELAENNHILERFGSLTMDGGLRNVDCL
In short: as §1

[3] = system: IKKε-mediated phosphorylation of IRF3; assay: In-situ phosphorylation of IRF3 (pIRF3 Ser396 ELISA) in HEK293T cells cotransfected with IRF3 and IKKε; format: cell-based; conditions: Homo sapiens, HEK-293T
In short: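 Cells for the IRF7 Western blots carried IRF7 and TBK1 plasmids, were seeded at 150,000/well, exposed to compound overnight and probed for pSer477/Ser479 IRF7. The ELISA readout used IRF3 + IKKε-cotransfected HEK293T at 20,000/well with 20 h treatment, quantifying pSer396 IRF3 relative to DMSO, plus a parallel CellTiter-Glo viability check.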

[4] = text bins, read-out: IC50 for inhibition of the kinase activity of IKKε
[5] = text bins, read-out: IC50 for inhibition of the kinase activity of TBK1
[6] = HEK293T cells, 20 hours, text bins, read-out: IC50 for inhibition of the in-situ IKKε-mediated phosphorylation of IRF3
[7] = HEK293T cells in culture, Table 3, read-out: pIRF3 ELISA IC50

pIC50 [1, 4]	pIC50 [2, 5]	pIC50 [3, 6]	pIC50 ([1]; Table 3, read-out: IKKε IC50)	pIC50 ([2]; Table 3, read-out: TBK1 IC50)	pIC50 [3, 7]	Compound
> 8.30	> 8.00	> 7.00				N#Cc1cc(-c2ccnc(Nc3ccc(OCCCN4CCOCC4)cc3)n2)ccc1OC1CCOCC1 [compound 527, 5-[2-({4-[3-(morpholin-4-yl)propoxy]phenyl}amino)pyrimidin-4-yl]-2-(tetrahydro-2H-pyran-4-yloxy)benzonitrile]
> 8.30	> 8.00	> 7.00				CCN(CC)CCOc1ccc(Nc2nccc(-c3ccc(OC4CCOCC4)c(C#N)c3)n2)cc1OC [compound 530]
> 8.30	> 8.00	> 7.00				CCN(CC)CCOCCOc1cc(Nc2nccc(-c3ccc(OC4CCOCC4)c(C#N)c3)n2)ccc1OC [compound 531, 5-{2-[(3-{2-[2-(diethylamino)ethoxy]ethoxy}-4-methoxyphenyl)amino]pyrimidin-4-yl}-2-(tetrahydro-2H-pyran-4-yloxy)benzonitrile]
> 8.30	> 8.00	> 7.00				Cc1ccc(Nc2nccc(-c3ccc(OC4CCOCC4)c(C#N)c3)n2)cc1OCCN1CCNCC1 [compound 533, 5-[2-({4-Methyl-3-[2-(piperazin-1-yl)ethoxy]phenyl}amino)pyrimidin-4-yl]-2-(tetrahydro-2H-pyran-4-yloxy)benzonitrile]
7.30 to 8.30	7.00 to 8.00	6.60 to 7.00				COCCNC(=O)c1ccc(Nc2nccc(-c3ccc(NC(=O)C4CC4)c(C#N)c3)n2)cc1 [compound 537]
> 8.30	> 8.00	6.60 to 7.00				CC(C)N1CCN(CCOc2cc(Nc3nccc(-c4ccc(OCC5CC5)c(C#N)c4)n3)ccc2F)CC1 [compound 574, 2-(Cyclopropylmethoxy)-5-{2-[(4-fluoro-3-{2-[4-(propan-2-yl)piperazin-1-yl]ethoxy}phenyl)amino]pyrimidin-4-yl}benzonitrile]
> 8.30	> 8.00	6.60 to 7.00				CCN(CC)CCOc1cc(Nc2nccc(-c3ccc(OC4CCOCC4)c(C#N)c3)n2)ccc1F [compound 586, 5-[2-({3-[2-(Diethylamino)ethoxy]-4-fluorophenyl}amino)pyrimidin-4-yl]-2-(tetrahydro-2H-pyran-4-yloxy)benzonitrile]
> 8.30	> 8.00	> 7.00				CCOC1CN(C(=O)c2ccc(Nc3nccc(-c4ccc(OC5CCOCC5)c(C#N)c4)n3)cc2OC)C1 [compound 599, 5-[2-({4-[(3-Ethoxyazetidin-1-yl)carbonyl]-3-methoxyphenyl}amino)pyrimidin-4-yl]-2-(tetrahydro-2H-pyran-4-yloxy)benzonitrile]

The next lines start with the compound.

Compound	pIC50 [1, 4]	pIC50 [2, 5]	pIC50 [3, 6]	pIC50 ([1]; Table 3, read-out: IKKε IC50)	pIC50 ([2]; Table 3, read-out: TBK1 IC50)	pIC50 [3, 7]
N#Cc1cc(-c2ccnc(Nc3cccc(OCCCN4CCOCC4)c3)n2)ccc1OC1CCOCC1 [compound 528, 5-[2-({3-[3-(morpholin-4-yl)propoxy]phenyl}amino)pyrimidin-4-yl]-2-(tetrahydro-2H-pyran-4-yloxy)benzonitrile]	7.30 to 8.30	> 8.00	6.30 to 6.60			
COc1ccc(Nc2nccc(-c3ccc(OC4CCOCC4)c(C#N)c3)n2)cc1OCCCN1CCOCC1 [compound 529, 5-[2-({4-methoxy-3-[3-(morpholin-4-yl)propoxy]phenyl}amino)pyrimidin-4-yl]-2-(tetrahydro-2H-pyran-4-yloxy)benzonitrile]	> 8.30	> 8.00	> 7.00			
N#Cc1cc(-c2ccnc(Nc3cccc(NC(=O)N4CCC(O)C4)c3)n2)ccc1OC1CCOCC1 (centres unmarked) [compound 536, N-[3-({4-[3-Cyano-4-(tetrahydro-2H-pyran-4-yloxy)phenyl]pyrimidin-2-yl}amino)phenyl]-3-hydroxypyrrolidine-1-carboxamide]	> 8.30	> 8.00	> 7.00	9.52	8.89	7.21
COCCNC(=O)Nc1cccc(Nc2nccc(-c3ccc(OC4CCOCC4)c(C#N)c3)n2)c1 [compound 543, 1-[3-({4-[3-Cyano-4-(tetrahydro-2H-pyran-4-yloxy)phenyl]pyrimidin-2-yl}amino)phenyl]-3-(2-methoxyethyl)urea]	> 8.30	> 8.00	> 7.00	8.96	8.89	7.30
COCCNCc1ccc(Nc2nccc(-c3ccc(NC(=O)C4CC4)c(C#N)c3)n2)cc1OC [compound 556]	7.30 to 8.30	> 8.00	> 7.00			
Cc1ccc(Nc2nccc(-c3ccc(OC4CCOCC4)c(C#N)c3)n2)cc1OCCN [compound 559, 5-(2-{[3-(2-Aminoethoxy)-4-methylphenyl]amino}pyrimidin-4-yl)-2-(tetrahydro-2H-pyran-4-yloxy)benzonitrile]	> 8.30	> 8.00	> 7.00			
N#Cc1cc(-c2ccnc(Nc3cccc(CN4CCC(O)C4)c3)n2)ccc1OC1CCOCC1 (centres unmarked) [compound 561, 5-[2-({3-[(3-Hydroxypyrrolidin-1-yl)methyl]phenyl}amino)pyrimidin-4-yl]-2-(tetrahydro-2H-pyran-4-yloxy)benzonitrile]	> 8.30	> 8.00	> 7.00	9.40	9.15	7.25
COc1cc(Nc2nccc(-c3ccc(OC4CCOCC4)c(C#N)c3)n2)ccc1C(=O)N1CCC1 [compound 567, 5-(2-{[4-(Azetidin-1-ylcarbonyl)-3-methoxyphenyl]amino}pyrimidin-4-yl)-2-(tetrahydro-2H-pyran-4-yloxy)benzonitrile]	> 8.30	> 8.00	> 7.00			
COc1cc(Nc2nccc(-c3ccc(O[C@@H]4CCN(C(=O)CO)C4)c(C#N)c3)n2)ccc1N1CCOCC1 [compound 588, 2-{[(3R)-1-(hydroxyacetyl)pyrrolidin-3-yl]oxy}-5-(2-{[3-methoxy-4-(morpholin-4-yl)phenyl]amino}pyrimidin-4-yl)benzonitrile]	> 8.30	> 8.00	> 7.00	9.52	9.52	7.51
N#Cc1cc(-c2ccnc(Nc3cccc(-c4nnn[nH]4)c3)n2)ccc1OC1CCOCC1 [compound 594, 2-(Tetrahydro-2H-pyran-4-yloxy)-5-(2-{[3-(1H-tetrazol-5-yl)phenyl]amino}pyrimidin-4-yl)benzonitrile]	> 8.30	> 8.00		9.52	8.70	< 5.30
Cc1ccc(Nc2nccc(-c3ccc(OC4CCOCC4)c(C#N)c3)n2)cc1OCCN1CCN(C(C)C)CC1 [compound 597, 5-{2-[(4-Methyl-3-{2-[4-(propan-2-yl)piperazin-1-yl]ethoxy}phenyl)amino]pyrimidin-4-yl}-2-(tetrahydro-2H-pyran-4-yloxy)benzonitrile]	> 8.30	> 8.00	6.60 to 7.00			
